Results taken from patent US20170130052A1, “A POLYMER BASED ON A MALTODEXTRIN FOR ENCAPSULATING ORGANIC COMPOUNDS” (ROQUETTE ITALIA S.P.A., priority 2014, published 2017).
In brackets after ≈: the same amount, converted by molar mass.

Experiment: Solubility of ketoprofen/dexamethasone owing to encapsulation in the polymers
Conditions: water

Work on `C[C@@H]1C[C@H]2[C@@H]3CCC4=CC(=O)C=C[C@]4(C)[C@@]3(F)[C@@H](O)C[C@]2(C)[C@@]1(O)C(=O)CO` [Dexamethasone] yielded a solubility of 90 µg/mL (≈ 229 µM).
